Patent US8192962B2, “Processes for detecting toxic substances” (Daikin Industries, Ltd., priority 2001, dated 2012)

System: Metabolism protein genes
Assay: DNA chip mRNA expression in yeast, metabolism protein genes (Table 7)
Assay type: cell-based, Saccharomyces cerevisiae S288C
Outline: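 First, S288C yeast grown in YPD at 25° C. are dosed in log phase with one toxicant (growth-inhibiting, not lethal) for 2 h. Next, total RNA is extracted and poly(A) mRNA isolated and reverse-transcribed with Cy3/Cy5-dUTP. Finally, whole-genome chip fluorescence is read relative to unexposed cells.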

## S=C([S-])NCCNC(=S)[S-].[Zn+2] [(11), zinc N,N′-ethylenebis(dithiocarbamate)]
Yeast gene YJR155W
  The level of expressed mRNA in the presence of chemical substance/The level of expressed mRNA in the absence of chemical substance: 15.4
Yeast gene YKL035W
  The level of expressed mRNA in the presence of chemical substance/The level of expressed mRNA in the absence of chemical substance: 2.1
Yeast gene YKL060C
  level of expressed mRNA in the presence/in the absence of chemical substance: 2.1
Yeast gene YKL091C
  The level of expressed mRNA in the presence of chemical substance/The level of expressed mRNA in the absence of chemical substance: 1.7
Yeast gene YKL104C
  The level of expressed mRNA in the presence of chemical substance/The level of expressed mRNA in the absence of chemical substance: 2.2
Yeast gene YKL148C
  level of expressed mRNA in the presence/in the absence of chemical substance: 1.5
Yeast gene YKL152C
  The level of expressed mRNA in the presence of chemical substance/The level of expressed mRNA in the absence of chemical substance: 1.7
Yeast gene YKL157W
  level of expressed mRNA in the presence/in the absence of chemical substance: 1.5
Yeast gene YKL213C
  The level of expressed mRNA in the presence of chemical substance/The level of expressed mRNA in the absence of chemical substance: 1.3
Yeast gene YKL215C
  The level of expressed mRNA in the presence of chemical substance/The level of expressed mRNA in the absence of chemical substance: 0.5
Yeast gene YKR039W
  The level of expressed mRNA in the presence of chemical substance/The level of expressed mRNA in the absence of chemical substance: 1.9
Yeast gene YLL058W
  The level of expressed mRNA in the presence of chemical substance/The level of expressed mRNA in the absence of chemical substance: 2.0
Yeast gene YLR006C
  level of expressed mRNA in the presence/in the absence of chemical substance: 1.5
Yeast gene YLR044C
  level of expressed mRNA in the presence/in the absence of chemical substance: 1.1
Yeast gene YLR056W
  level of expressed mRNA in the presence/in the absence of chemical substance: 0.8
Yeast gene YLR058C
  level of expressed mRNA in the presence/in the absence of chemical substance: 2.6
Yeast gene YLR081W
  level of expressed mRNA in the presence/in the absence of chemical substance: 2.6
Yeast gene YLR089C
  level of expressed mRNA in the presence/in the absence of chemical substance: 1.7
Yeast gene YLR180W
  The level of expressed mRNA in the presence of chemical substance/The level of expressed mRNA in the absence of chemical substance: 1.7
Yeast gene YLR273C
  The level of expressed mRNA in the presence of chemical substance/The level of expressed mRNA in the absence of chemical substance: 1.4
Yeast gene YLR284C
  level of expressed mRNA in the presence/in the absence of chemical substance: 1.5
Yeast gene YLR299W
  The level of expressed mRNA in the presence of chemical substance/The level of expressed mRNA in the absence of chemical substance: 1.7
Yeast gene YLR300W
  The level of expressed mRNA in the presence of chemical substance/The level of expressed mRNA in the absence of chemical substance: 1.0
Yeast gene YLR304C
  level of expressed mRNA in the presence/in the absence of chemical substance: 1.6
Yeast gene YLR307W
  The level of expressed mRNA in the presence of chemical substance/The level of expressed mRNA in the absence of chemical substance: 0.8
Yeast gene YLR348C
  The level of expressed mRNA in the presence of chemical substance/The level of expressed mRNA in the absence of chemical substance: 1.3
Yeast gene YLR354C
  level of expressed mRNA in the presence/in the absence of chemical substance: 1.7
Yeast gene YLR372W
  level of expressed mRNA in the presence/in the absence of chemical substance: 0.9
Yeast gene YML022W
  level of expressed mRNA in the presence/in the absence of chemical substance: 1.2
Yeast gene YML054C
  The level of expressed mRNA in the presence of chemical substance/The level of expressed mRNA in the absence of chemical substance: 1.4
Yeast gene YML058W
  The level of expressed mRNA in the presence of chemical substance/The level of expressed mRNA in the absence of chemical substance: 3.3
Yeast gene YML070W
  The level of expressed mRNA in the presence of chemical substance/The level of expressed mRNA in the absence of chemical substance: 1.5
Yeast gene YML100W
  The level of expressed mRNA in the presence of chemical substance/The level of expressed mRNA in the absence of chemical substance: 3.2
Yeast gene YMR008C
  The level of expressed mRNA in the presence of chemical substance/The level of expressed mRNA in the absence of chemical substance: 1.3
Yeast gene YMR011W
  level of expressed mRNA in the presence/in the absence of chemical substance: 1.5
Yeast gene YMR015C
  level of expressed mRNA in the presence/in the absence of chemical substance: 1.0
Yeast gene YMR020W
  The level of expressed mRNA in the presence of chemical substance/The level of expressed mRNA in the absence of chemical substance: 1.5
Yeast gene YMR083W
  level of expressed mRNA in the presence/in the absence of chemical substance: 1.6
Yeast gene YMR105C
  The level of expressed mRNA in the presence of chemical substance/The level of expressed mRNA in the absence of chemical substance: 3.0
Yeast gene YMR189W
  The level of expressed mRNA in the presence of chemical substance/The level of expressed mRNA in the absence of chemical substance: 8.2
Yeast gene YMR205C
  level of expressed mRNA in the presence/in the absence of chemical substance: 1.0
Yeast gene YMR261C
  level of expressed mRNA in the presence/in the absence of chemical substance: 0.8
Yeast gene YMR271C
  The level of expressed mRNA in the presence of chemical substance/The level of expressed mRNA in the absence of chemical substance: 1.7
Yeast gene YMR296C
  The level of expressed mRNA in the presence of chemical substance/The level of expressed mRNA in the absence of chemical substance: 0.8
Yeast gene YMR323W
  level of expressed mRNA in the presence/in the absence of chemical substance: 2.5
Yeast gene YNL012W
  The level of expressed mRNA in the presence of chemical substance/The level of expressed mRNA in the absence of chemical substance: 1.6
Yeast gene YNL025C
  level of expressed mRNA in the presence/in the absence of chemical substance: 1.1
Yeast gene YNL045W
  The level of expressed mRNA in the presence of chemical substance/The level of expressed mRNA in the absence of chemical substance: 2.1
Yeast gene YNL104C
  The level of expressed mRNA in the presence of chemical substance/The level of expressed mRNA in the absence of chemical substance: 2.1
Yeast gene YNL106C
  The level of expressed mRNA in the presence of chemical substance/The level of expressed mRNA in the absence of chemical substance: 0.9
Yeast gene YNL169C
  The level of expressed mRNA in the presence of chemical substance/The level of expressed mRNA in the absence of chemical substance: 0.8
Yeast gene YNL192W
  level of expressed mRNA in the presence/in the absence of chemical substance: 1.1
Yeast gene YNL231C
  The level of expressed mRNA in the presence of chemical substance/The level of expressed mRNA in the absence of chemical substance: 1.3
Yeast gene YNL322C
  The level of expressed mRNA in the presence of chemical substance/The level of expressed mRNA in the absence of chemical substance: 0.6
Yeast gene YNL331C
  The level of expressed mRNA in the presence of chemical substance/The level of expressed mRNA in the absence of chemical substance: 21.8
Yeast gene YNL332W
  The level of expressed mRNA in the presence of chemical substance/The level of expressed mRNA in the absence of chemical substance: 2.6
Yeast gene YNR019W
  The level of expressed mRNA in the presence of chemical substance/The level of expressed mRNA in the absence of chemical substance: 0.7
Yeast gene YNR033W
  The level of expressed mRNA in the presence of chemical substance/The level of expressed mRNA in the absence of chemical substance: 0.4
Yeast gene YNR059W
  The level of expressed mRNA in the presence of chemical substance/The level of expressed mRNA in the absence of chemical substance: 1.0
Yeast gene YOL058W
  The level of expressed mRNA in the presence of chemical substance/The level of expressed mRNA in the absence of chemical substance: 2.3
Yeast gene YOL086C
  level of expressed mRNA in the presence/in the absence of chemical substance: 2.6
Yeast gene YOL108C
  level of expressed mRNA in the presence/in the absence of chemical substance: 1.1
Yeast gene YOL116W
  level of expressed mRNA in the presence/in the absence of chemical substance: 1.0
Yeast gene YOL126C
  The level of expressed mRNA in the presence of chemical substance/The level of expressed mRNA in the absence of chemical substance: 1.8
Yeast gene YOL153C
  The level of expressed mRNA in the presence of chemical substance/The level of expressed mRNA in the absence of chemical substance: 2.4
Yeast gene YOL156W
  level of expressed mRNA in the presence/in the absence of chemical substance: 1.1
Yeast gene YOL165C
  The level of expressed mRNA in the presence of chemical substance/The level of expressed mRNA in the absence of chemical substance: 17.6
Yeast gene YOR002W
  level of expressed mRNA in the presence/in the absence of chemical substance: 1.2
Yeast gene YOR085W
  level of expressed mRNA in the presence/in the absence of chemical substance: 1.1
Yeast gene YOR099W
  The level of expressed mRNA in the presence of chemical substance/The level of expressed mRNA in the absence of chemical substance: 1.2
Yeast gene YOR103C
  level of expressed mRNA in the presence/in the absence of chemical substance: 1.0
Yeast gene YOR108W
  level of expressed mRNA in the presence/in the absence of chemical substance: 1.4
Yeast gene YOR128C
  level of expressed mRNA in the presence/in the absence of chemical substance: 0.8
Yeast gene YOR130C
  The level of expressed mRNA in the presence of chemical substance/The level of expressed mRNA in the absence of chemical substance: 0.6
Yeast gene YOR142W
  level of expressed mRNA in the presence/in the absence of chemical substance: 1.5
Yeast gene YOR176W
  level of expressed mRNA in the presence/in the absence of chemical substance: 1.4
Yeast gene YOR178C
  level of expressed mRNA in the presence/in the absence of chemical substance: 4.1
Yeast gene YOR251C
  level of expressed mRNA in the presence/in the absence of chemical substance: 1.0
Yeast gene YOR336W
  The level of expressed mRNA in the presence of chemical substance/The level of expressed mRNA in the absence of chemical substance: 1.4
Yeast gene YOR347C
  The level of expressed mRNA in the presence of chemical substance/The level of expressed mRNA in the absence of chemical substance: 1.4
Yeast gene YOR348C
  level of expressed mRNA in the presence/in the absence of chemical substance: 1.1
Yeast gene YPL017C
  The level of expressed mRNA in the presence of chemical substance/The level of expressed mRNA in the absence of chemical substance: 0.4
Yeast gene YPL028W
  level of expressed mRNA in the presence/in the absence of chemical substance: 1.2
Yeast gene YPL057C
  level of expressed mRNA in the presence/in the absence of chemical substance: 1.6
Yeast gene YPL135W
  level of expressed mRNA in the presence/in the absence of chemical substance: 1.3
Yeast gene YPL148C
  level of expressed mRNA in the presence/in the absence of chemical substance: 3.5
Yeast gene YPR026W
  The level of expressed mRNA in the presence of chemical substance/The level of expressed mRNA in the absence of chemical substance: 1.6
Yeast gene YPR113W
  level of expressed mRNA in the presence/in the absence of chemical substance: 2.0
Yeast gene YPR160W
  The level of expressed mRNA in the presence of chemical substance/The level of expressed mRNA in the absence of chemical substance: 4.4
Yeast gene YPR165W
  level of expressed mRNA in the presence/in the absence of chemical substance: 1.0
Yeast gene YPR167C
  The level of expressed mRNA in the presence of chemical substance/The level of expressed mRNA in the absence of chemical substance: 1.9
Yeast gene YPR183W
  level of expressed mRNA in the presence/in the absence of chemical substance: 2.5
Yeast gene YPR184W
  The level of expressed mRNA in the presence of chemical substance/The level of expressed mRNA in the absence of chemical substance: 3.6
